# “And” between values parts separate entries of the source, which are not always exact repeats. Equal values may be shown once.
# Legend:
# [1] = target: T1, Saccharomyces cerevisiae α-glucosidase (Saccharomyces cerevisiae, UniProt P53341); assay: biochemical; conditions: IC50, α-glucosidase 0.2 U/mL, 5 mM pNPG, PBS pH 6.8, 37 °C
# T1 construct: purchased Shanghai Yuanye Biotechnology Co., Shanghai, China Lot No. M23HS178879 (catalogue number not given)
# Protocol: (§1) The α-glucosidase inhibitory effects of flavonoids were evaluated as in a previous report with slight modifications (including changes in the concentrations of the enzyme, substrate, and Na2CO3). Briefly, 50 μL of phosphate-buffered saline (PBS, 0.1 M, pH 6.8), the test compound, and α-glucosidase (0.2 U/mL) were preincubated in a 96-well plate at 37 °C for 10 min. The reaction was then initiated by adding 50 μL of 5 mM pNPG as the substrate. Subsequently, the 96-well plate was incubated for an additional 30 min at 37 °C, then 50 μL of 0.2 M Na2CO3 was added to terminate the reaction. Absorbance was measured at under 405 nm.
# [2] = target: T2, α-glucosidase (Saccharomyces cerevisiae, UniProt P53341); assay: CD spectroscopy, secondary structure of α-glucosidase (BeStSel); conditions: for β-turn: free enzyme 11.7; for β-sheet: free enzyme 28.8; for random coil: free enzyme 45.2; for α-helix: free enzyme 14.4
# T2 construct: purchased Shanghai Yuanye Biotechnology Co., Shanghai, China Lot No. M23HS178879 (catalogue number not given)
# Protocol: CD spectra in the far-UV region (190–250 nm) were scanned by using a CD spectrometer (JASCO-1.5 Tokyo, Japan). […] The slit width was set to 1 nm, and the baseline was calibrated with PBS (phosphate buffered saline). CD spectra were averaged over three scans under a constant nitrogen flow, with the buffer signal subtracted. The results were analyzed using the BeStSel database (https://bestsel.elte.hu/index.php, accessed on 16 May 2025).
# [3] = test system: normal C57BL/6J mice; assay: Oral sucrose test, postprandial blood glucose; format: in vivo; conditions: for Blood glucose levels: 30 min after sucrose 4 g/kg, n = 8, in mmol/L (unit assumed); for Rate of blood glucose reduction: vs model group, 30 min after sucrose
# From the text: Male C57BL/6J mice of SPF grade, aged 6–8 weeks and weighing 18–22 g, were obtained from the Experimental Animal Science Department of Peking University. The mice were housed in a controlled environment with a 12:12 light/dark cycle and a constant temperature. They were provided with standard pellet feed and given free access to drinking water. To ensure acclimatization, the mice were allowed to adjust to the diet and housing conditions for one week prior to the experiment. All animal experiments were performed in compliance with the relevant laws and institutional guidelines for the care and use of laboratory animals in China. The experiments were approved by the Laboratory Animal Management and Ethics Committee of Peking University (LA2021443). Additionally, the certification number for the laboratory animal personnel is 1120111300011.
# The 16 flavonoids were subsequently evaluated for their potential antihyperglycemic effects by using the oral sucrose test, which is commonly used to evaluate intestinal α-glucosidase inhibition in vivo [62]. Normal C57BL/6J mice were randomly divided into model groups and the 16 flavonoid compound groups (n = 8 per group), respectively. The flavonoids at different concentrations were suspended in 0.5% sodium carboxymethyl cellulose (CMC-Na). […] Fifteen minutes after drug administration, the mice were given a sucrose solution (4 g/kg). Blood samples were collected from the tail vein at 30 min after sucrose loading, and blood glucose levels were measured using an Accu-Chek Performa glucometer (Roche Diagnostics, SN: 79508621393, Shanghai, China). The rate of blood glucose reduction was calculated using the following Formula (4):(4) The rate of blood glucose reduction%=the model blood glucose-the sample blood glucose/the model blood glucose×100%
# [4] = target: T2, α-glucosidase; assay: Inhibitory kinetic analysis (Lineweaver–Burk plot); format: biochemical; conditions: Lineweaver–Burk plots, pNPG 0.31–20 mM
# Protocol: The type of inhibition was determined by using the kinetics curve and the Lineweaver–Burk plot. […] These compounds were incubated with α-glucosidase at 37 °C for 30 min. After incubation, various concentrations of pNPG (0.31–20 mM) were added, and absorbance was measured at 405 nm. The Lineweaver–Burk plot was obtained by plotting 1/[S] on the x-axis and 1/v on the y-axis, where [S] represents substrate concentration and v represents the reaction velocity.
# [5] = target: T2, α-glucosidase; assay: Mixture effects of flavonoid combinations on α-glucosidase; format: biochemical
# Protocol: as §1
# The inhibitory activity of the composition was evaluated using the same method described in Section 3.2. […] The combination index (CI, Formula (3)) was subsequently used to assess the interactions between the compounds [60].(2) Y=Bottom+Top−Bottom/1+10^^((LogIC50−X)×HillSlope)
# In Formula (3), (D)j represents the concentration of component j in the mixture needed to achieve an effect of x, while (Dx)j denotes the concentration of component j required to produce the same effect when acting alone. Here, x refers to the inhibition rate produced by the composition, and n indicates the number of individual compounds in the composition.
# [6] = molar ratio 10:1, α-glucosidase 4 μM
# [7] = molar ratio 40:1, α-glucosidase 4 μM
# [8] = molar ratio compound:α-glucosidase 10:1, α-glucosidase 4 μM
# [9] = calculated from the dose–response curve
# [10] = each compound alone at its IC15 concentration, Com1 = mixture of the four at IC15 (117 μM in total)
# [11] = 20 mg/kg oral (acarbose, positive control of each experiment)
# T2 sequence (P53341 whole entry): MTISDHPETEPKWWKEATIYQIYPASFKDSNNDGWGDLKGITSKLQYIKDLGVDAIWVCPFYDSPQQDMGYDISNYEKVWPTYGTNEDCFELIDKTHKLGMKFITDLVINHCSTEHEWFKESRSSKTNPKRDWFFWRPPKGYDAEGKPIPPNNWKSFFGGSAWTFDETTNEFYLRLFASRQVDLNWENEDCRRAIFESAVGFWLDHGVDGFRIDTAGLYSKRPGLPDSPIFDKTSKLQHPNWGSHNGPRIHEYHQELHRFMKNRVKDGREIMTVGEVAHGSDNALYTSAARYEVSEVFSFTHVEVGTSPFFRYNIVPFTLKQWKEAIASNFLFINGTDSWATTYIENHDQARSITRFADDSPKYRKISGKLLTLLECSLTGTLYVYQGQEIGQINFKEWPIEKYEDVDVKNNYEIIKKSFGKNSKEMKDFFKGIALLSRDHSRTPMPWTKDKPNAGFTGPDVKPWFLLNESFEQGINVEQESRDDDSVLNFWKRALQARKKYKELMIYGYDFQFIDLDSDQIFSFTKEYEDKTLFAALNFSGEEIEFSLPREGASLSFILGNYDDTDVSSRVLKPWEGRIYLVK
# T1 sequence (P53341 whole entry): as above
SMILES,IC50 [1],"β-turn [2, 6]","β-sheet [2, 6]","random coil [2, 6]","β-turn [2, 7]","α-helix [2, 7]","β-sheet [2, 7]","random coil [2, 7]","α-helix [2, 8]",Blood glucose levels ([3]; 10 mg/kg oral),Rate of blood glucose reduction ([3]; 10 mg/kg oral),Blood glucose levels ([3]; 25 mg/kg oral),Rate of blood glucose reduction ([3]; 25 mg/kg oral),Blood glucose levels ([3]; 50 mg/kg oral),Rate of blood glucose reduction ([3]; 50 mg/kg oral),type of inhibition on α-glucosidase [4],"IC05 [5, 9]",Blood glucose levels ([3]; 100 mg/kg oral),Rate of blood glucose reduction ([3]; 100 mg/kg oral),further results
"O=c1c(O[C@@H]2O[C@H](CO)[C@@H](O)[C@H](O)[C@H]2O)c(-c2ccc(O)c(O)c2)oc2cc(O)cc(O)c12 [C10, isoquercitrin]",71.7 ± 7.62 µM,14.2%,24.0%,49.3%,13.1%,12.5%,16.6%,57.8%,12.4%,12.41 ± 2.07,7.66%,12.21 ± 2.08,9.15%,10.91 ± 1.78,18.82%,competitive inhibitor,–,–,–,"IC15 (concentration corresponding to a 15% inhibition rate) [5, 9]: 40 µM; inhibition rate against α-glucosidase [5, 10]: 14.93 ± 4.73%"
"O=C1c2ccc(O)cc2OCC1c1ccc(O)cc1 (stereo not drawn) [C28, dihydrodaidzein]",412 ± 11.4 µM,14.4%,25.6%,50.7%,12.9%,10.9%,20.7%,55.5%,9.30%,12.74 ± 0.75,12.61%,–,–,11.39 ± 1.48,21.87%,mixed-type inhibitors,98.27 µM,–,–,Blood glucose levels ([3]; 2 mg/kg oral): 14.84 ± 0.62; Rate of blood glucose reduction ([3]; 2 mg/kg oral): -1.80%
"C[C@@H]1O[C@@H](OC[C@H]2O[C@@H](Oc3c(-c4ccc(O)c(O)c4)oc4cc(O)cc(O)c4c3=O)[C@H](O)[C@@H](O)[C@@H]2O)[C@H](O)[C@H](O)[C@H]1O [C6, rutin]",211 ± 11.2 µM,12.1%,26.9%,45.5%,17.6%,9.30%,14.3%,58.8%,15.5%,12.81 ± 1.23,11.49%,–,–,11.83 ± 0.71,18.31%,–,–,–,–,Blood glucose levels ([3]; 2 mg/kg oral): 14.68 ± 1.00; Rate of blood glucose reduction ([3]; 2 mg/kg oral): -1.38%
"O=c1c(O)c(-c2ccc(O)cc2)oc2cc(O)cc(O)c12 [C2, kaempferol]",–,12.5%,25.3%,48.2%,13.3%,9.70%,23.9%,53.1%,14.1%,12.68 ± 1.47,9.06%,–,–,12.79 ± 0.81,8.25%,mixed-type inhibitors,–,11.88 ± 1.62,14.80%,–
"O=c1c(O)c(-c2ccc(O)c(O)c2)oc2cc(O)cc(O)c12 [C1, quercetin]",–,13.1%,23.6%,49.1%,12.5%,11.1%,27.9%,48.5%,14.0%,14.46 ± 1.06,0.77%,–,–,13.41 ± 0.41,7.98%,mixed-type inhibitors,0.82 µM,12.26 ± 1.65,15.87%,"inhibition rate against α-glucosidase ([5]; each compound alone at its IC05 concentration, Com2 = mixture of the seven at IC05 (381.58 μM in total)): 4.70 ± 1.66%; inhibition rate against α-glucosidase [5, 10]: 17.16 ± 0.75%"
"O=C1C[C@@H](c2ccc(O)cc2)Oc2cc(O)cc(O)c21 [C5, naringenin]",–,12.8%,20.6%,53.3%,13%,15.3%,25.3%,46.5%,13.2%,–,–,13.23 ± 0.63,14.33%,–,–,mixed-type inhibitors,26.47 µM,12.39 ± 1.03,19.76%,Blood glucose levels ([3]; 5 mg/kg oral): 14.56 ± 1.96; Rate of blood glucose reduction ([3]; 5 mg/kg oral): 5.67%
"O=c1c(O[C@@H]2O[C@H](CO)[C@@H](O)[C@H](O)[C@H]2O)c(-c2ccc(O)cc2)oc2cc(O)cc(O)c12 [C7, astragalin]",–,–,–,–,–,–,–,–,–,–,–,–,–,–,–,–,–,–,–,"effect on postprandial blood glucose ([3]; 30 min after the sucrose load, compared to the model group, C7 at 10, 50 or 250 mg/kg): no glucose-lowering effect"
"O=c1c(-c2ccc(O)cc2)coc2cc(O)cc(O)c12 [C8, genistein]",–,–,–,–,–,–,–,–,–,–,–,13.91 ± 1.00,4.55%,13.26 ± 0.72,9.01%,–,–,12.06 ± 0.82,17.24%,–
"C[C@H]1O[C@H](O[C@H]2[C@H](O)[C@@H](O)[C@@H](O[C@H]3[C@H](O)[C@@H](O)C(O)O[C@@H]3CO)O[C@@H]2CO)[C@H](O)[C@@H](O)[C@@H]1N[C@H]1C=C(CO)[C@@H](O)[C@H](O)[C@H]1O (stereo partly drawn) [acarbose, reference compound]",–,–,–,–,–,–,–,–,–,–,–,–,–,–,–,–,–,–,–,"Blood glucose levels [3, 11]: 7.39 ± 0.70 and 7.38 ± 0.95 and 7.90 ± 0.56 and 8.09 ± 0.60 and 7.16 ± 0.52 and 7.98 ± 0.58; Rate of blood glucose reduction [3, 11]: 49.31% and 47.09% and 48.83% and 44.13% and 46.72% and 50.02%"

# From paper PMC12114633, “α-Glucosidase Inhibition Mechanism and Anti-Hyperglycemic Effects of Flavonoids from Astragali Radix and Their Mixture Effects” (Pharmaceuticals, 2025)
